Measured values as given in US10898451B2 (Board of Regents of the University of Texas System, priority 2018, dated 2021).

How the values were obtained:
[1] = Grond and Sablotzki 2004; cited from earlier work
[2] = oral formulation; Grond and Sablotzki 2004; cited from earlier work
anti-NMDAR encephalitis = assay: Case study: tramadol pre-treatment with therapeutic plasma exchange (PLEX) in a patient with anti-NMDAR encephalitis; format: in vivo, human
Description: Described herein is a previously healthy person with newly diagnosed seizures and schizophrenia. […] At that time, they were started on solumedrol 1 g each day for five days along with the last two days of the steroid course being completed. […] Their anti-epileptic medications were escalated to include levetiracetam, phenobarbital, and lacosimide.
The assay used a semi-quantitative indirect immunofluorescence on human embryonic kidney cell cultures expressing recombinant NMDA receptors (transfected HEK 293 cells). […] NMDA receptor antibodies were not sent from their serum. […] Six days after their colectomy, PLEX was restarted for another five sessions.

[3] = PLEX in combination with tramadol 100 mg enterally three times a day

COc1cccc(C2(O)CCCCC2CN(C)C)c1 (stereo not shown) [tramadol, 2-(dimethylaminomethyl)-1-(3-methoxyphenyl)cyclohexanol]
patients with serious side effects (hypotension, circulatory collapse, pruritis, sleep disorders, somnolence, abdominal pain, tachycardia) [1]: less than 1% | absorption [2]: completely absorbed | brain concentration versus plasma [2]: higher brain concentration than in plasma | peak onset [2]: approximately 60 min | facial dyskinesias by the end of the fifth PLEX session (anti-NMDAR encephalitis; [3]): completely resolved | following commands by the end of the third PLEX session (anti-NMDAR encephalitis; [3]): began to follow commands | level of consciousness by the end of the fifth PLEX session (anti-NMDAR encephalitis; [3]): alert and awake enough to interact with their care providers | overall safety and efficacy in anti-NMDAR encephalitis (anti-NMDAR encephalitis; conclusion of the case study): safe and an effective treatment | recurrence of symptoms at follow up (anti-NMDAR encephalitis; nine months after symptoms onset): has not had any recurrent symptoms | facial dyskinesias after the first PLEX session (anti-NMDAR encephalitis; patient, tramadol 100 mg enterally three times a day, one hour before each of five PLEX sessions): resolved | eye opening immediately following the first PLEX session (anti-NMDAR encephalitis; tramadol 100 mg enterally three times a day, one hour before each PLEX session): opened their eyes spontaneously

C[C@H]1C[C@@H]2[C@H]([C@@H](O)C[C@@]3(C)[C@H]2CC[C@]3(O)C(=O)COC(=O)CCC(=O)O)[C@@]2(C)C=CC(=O)C=C12 [solumedrol]
improvement of symptoms after steroid course (anti-NMDAR encephalitis; solumedrol 1 g each day for five days): failed to improve any of their symptoms

CNC1(c2ccccc2Cl)CCCCC1=O (stereo not shown) [ketamine]
facial dyskinesias during the first three PLEX sessions (without tramadol) (anti-NMDAR encephalitis; ketamine at 20 mcg/kg/min, patient obtunded and not following commands): minimal improvement
